17 molecules from US20220227737A1, “NOVEL OXALYL PIPERAZINES ACTIVE AGAINST THE HEPATITIS B VIRUS (HBV)” (AiCuris GmbH & Co. KG, priority 2019, published 2022) can be followed below.

The nature of series [1]: Cell viability assay (AlamarBlue). Conditions: human, HepAD38 cells. In general terms: Resazurin is reduced to fluorescent resorufin, in cell work by metabolically active cells.
A further series has as its system HBV. Kind of series: HBV replication assay: HBV DNA from the supernatants of HepAD38 cells. It counts as cell-based. Conditions: Hepatitis B virus, 144 h, HBV DNA in supernatant at day 6, read-out: Cell Activity. As to the method: Determination of HBV DNA from the Supernatants of HepAD38 Cells
The anti-HBV activity was analysed in the stable transfected cell line HepAD38, which has been described to secrete high levels of HBV virion particles (Ladner et al., 1997). In brief, HepAD38 cells were cultured at 37° C. at 5% CO2 and 95% humidity in 200 μl maintenance medium, which was Dulbecco's modified Eagle's medium/Nutrient Mixture F-12 (Gibco, Karlsruhe), 10% fetal bovine serum (PAN Biotech Aidenbach) supplemented with 50 μg/ml penicillin/streptomycin (Gibco, Karlsruhe), 2 mM L-glutamine (PAN Biotech, Aidenbach), 400 μg/ml G418 (AppliChem, Darmstadt) and 0.3 μg/ml tetracycline. Cells were subcultured once a week in a 1:5 ratio, but were usually not passaged more than ten times. For the assay 60,000 cells were seeded in maintenance medium without any tetracycline into each well of a 96-well plate and treated with serial half-log dilutions of test compound. To minimize edge effects the outer 36 wells of the plate were not used but were filled with assay medium. On each assay plate six wells for the virus control (untreated HepAD38 cells) and six wells for the cell control (HepAD38 cells treated with 0.3 μg/ml tetracycline) were allocated, respectively. In addition, one plate set with reference inhibitors like BAY 41-4109, entecavir, and lamivudine instead of screening compounds were prepared in each experiment. In general, experiments were performed thrice in triplicates. At day 6 HBV DNA from 100 μl filtrated cell culture supernatant (AcroPrep Advance 96 Filter Plate, […] Supor membran, PALL GmbH, Dreieich) was automatically purified on the MagNa Pure LC instrument using the MagNA Pure 96 DNA and Viral NA Small Volume Kit (Roche Diagnostics, Mannheim) according to the instructions of the manufacturer. EC50 values were calculated from relative copy numbers of HBV DNA In brief, 5 μl of the 100 μl eluate containing HBV DNA were subjected to PCR LC480 Probes Master Kit (Roche) together with 1 μM antisense primer […], 0.5 μM sense primer […], 0.3 μM hybprobes […]-FL and LC640-[…]-PH (TIBMolBiol, Berlin) to a final volume of […]. The PCR was performed on the Light Cycler 480 real time system (Roche Diagnostics, Mannheim) using the following protocol: Pre-incubation for 1 min at 95° C., amplification: 40 cycles×(10 sec at 95° C., 50 sec at 60° C., 1 sec at 70° C.), cooling for 10 sec at 40° C. Viral load was quantitated against known standards using HBV plasmid DNA of pCH-9/3091 (Nassal et al., 1990, Cell 63: 1357-1363) and the LightCycler 480 SW 1.5 software (Roche Diagnostics, Mannheim) and EC50 values were calculated using non-linear regression with GraphPad Prism 6 (GraphPad Software Inc., La Jolla, USA).

Series [2] concerns the target T1, C-terminal truncated core protein (HBV core dimer, BODIPY-FL labelled) (UniProt P03146).
T1 construct: fused on or other part: One added cysteine at position 150, labelled with BODIPY-FL maleimide; The C-terminal arginine-rich domain is absent
Kind of series: Biochemical capsid assembly assay (fluorescence quenching). The procedure:
Biochemical Capsid Assembly Assay
The screening for assembly effector activity was done based on a fluorescence quenching assay published by Zlotnick et al. (2007). The C-terminal truncated core protein containing 149 amino acids of the N-terminal assembly domain fused to a unique cysteine residue at position 150 and was expressed in E. coli using the pET expression system (Merck Chemicals, Darmstadt). Purification of core dimer protein was performed using a sequence of size exclusion chromatography steps. In brief, the cell pellet from 1 L BL21 (DE3) Rosetta2 culture expressing the coding sequence of core protein cloned NdeI/XhoI into expression plasmid pET21b was treated for 1 h on ice with a native lysis buffer (Qproteome Bacterial Protein Prep Kit; Qiagen, Hilden). After a centrifugation step the supernatant was precipitated during 2 h stirring on ice with 0.23 g/ml of solid ammonium sulfate. Following further centrifugation the resulting pellet was resolved in buffer A (100 mM Tris, pH 7.5; 100 mM NaCl; 2 mM DTT) and was subsequently loaded onto a buffer A equilibrated CaptoCore 700 column (GE HealthCare, Frankfurt). The column flow through containing the assembled HBV capsid was dialyzed against buffer N (50 mM NaHCO3 pH 9.6; 5 mM DTT) before urea was added to a final concentration of 3M to dissociate the capsid into core dimers for 1.5 h on ice. The protein solution was then loaded onto a 1 L Sephacryl 5300 column. After elution with buffer N core dimer containing fractions were identified by SDS-PAGE and subsequently pooled and dialyzed against 50 mM HEPES pH 7.5; 5 mM DTT. To improve the assembly capacity of the purified core dimers a second round of assembly and disassembly starting with the addition of 5 M NaCl and including the size exclusion chromatography steps described above was performed. From the last chromatography step core dimer containing fractions were pooled and stored in aliquots at concentrations between 1.5 to 2.0 mg/ml at −80° C.
Immediately before labelling the core protein was reduced by adding freshly prepared DTT in a final concentration of 20 mM. After 40 min incubation on ice storage buffer and DTT was removed using a Sephadex G-25 column (GE HealthCare, Frankfurt) and 50 mM HEPES, pH 7.5. For labelling 1.6 mg/ml core protein was incubated at 4° C. and darkness overnight with BODIPY-FL maleimide (Invitrogen, Karlsruhe) in a final concentration of 1 mM. After labelling the free dye was removed by an additional desalting step using a Sephadex G-25 column. Labelled core dimers were stored in aliquots at 4° C. In the dimeric state the fluorescence signal of the labelled core protein is high and is quenched during the assembly of the core dimers to high molecular capsid structures. The screening assay was performed in black 384 well microtiter plates in a total assay volume of 10 μl using 50 mM HEPES pH 7.5 and 1.0 to 2.0 μM labelled core protein. Each screening compound was added in 8 different concentrations using a 0.5 log-unit serial dilution starting at a final concentration of 100 μM, 31.6 μM or 10 μM, In any case the DMSO concentration over the entire microtiter plate was 0.5%. The assembly reaction was started by the injection of NaCl to a final concentration of […] which induces the assembly process to approximately 25% of the maximal quenched signal. […] after starting the reaction the fluorescence signal was measured using a Clariostar plate reader (BMG Labtech, Ortenberg) with an excitation of 477 nm and an emission of 525 nm. As 100% and 0% assembly control HEPES buffer containing 2.5 M and 0 M NaCl was used. Experiments were performed thrice in triplicates. EC50 values were calculated by non-linear regression analysis using the Graph Pad Prism 6 software (GraphPad Software, La Jolla, USA).

T1 sequence (P03146 whole entry, the tested form may be a part): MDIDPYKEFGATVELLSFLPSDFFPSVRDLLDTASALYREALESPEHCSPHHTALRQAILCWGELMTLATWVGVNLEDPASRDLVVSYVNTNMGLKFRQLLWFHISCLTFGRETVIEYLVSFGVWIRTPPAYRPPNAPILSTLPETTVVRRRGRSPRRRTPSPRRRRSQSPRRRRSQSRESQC

In general, CC50 refers to the concentration at which the toxic effect on the cells reaches its halfway point. Read a high CC50 as better tolerance by the cells. By IC50 is commonly meant the point on the concentration scale where inhibition reaches its midpoint. Molecule `CCCCNC(=O)C(=O)N1CCN(C(=O)c2cc3cccc(F)c3[nH]2)CC1` [Example 25, N-butyl-2-(4-(7-fluoro-1H-indole-2-carbonyl)piperazin-1-yl)-2-oxoacetamide] had a CC50 at 6 days in series [1] greater than 100 µM. Besides, the EC50 in the series with HBV is less than 1 µM. Also, the IC50 in series [2] was less than 5 µM.

Molecule `CCCCNC(=O)C(=O)N1CCCN(C(=O)c2cc3ccccc3[nH]2)CC1` [Example 8, N-butyl-2-[4-(1H-indole-2-carbonyl)-1,4-diazepan-1-yl]-2-oxoacetamide] registered a CC50 at 6 days in series [1] greater than 100 µM. The EC50 with HBV was less than 1 µM. Moreover, the IC50 in series [2] is less than 100 µM.

Consider `O=C(NCC1CCOC1)C(=O)N1CCN(C(=O)c2cc3ccccc3[nH]2)CC1` (stereo not drawn) [Example 4, 2-(4-(1H-indole-2-carbonyl)piperazin-1-yl)-2-oxo-N-((tetrahydrofuran-3-yl)methyl)acetamide], for which the CC50 at 6 days in series [1] is greater than 100 µM. Besides, in the series with HBV, the EC50 lay in the range of 1 to 10 µM. The molecule further registered an IC50 in series [2] of less than 100 µM.

For the molecule `CCCCNC(=O)C(=O)N1CCN(C(=O)c2cc3ccc(F)cc3[nH]2)CC1` [Example 23, N-butyl-2-(4-(6-fluoro-1H-indole-2-carbonyl)piperazin-1-yl)-2-oxoacetamide], the CC50 at 6 days in series [1] is greater than 100 µM. Moreover, in the series with HBV, the EC50 is less than 1 µM. In addition, the IC50 in series [2] was less than 5 µM.

Regarding `COC(C)CNC(=O)C(=O)N1CCN(C(=O)c2cc3c(F)cc(F)cc3[nH]2)CC1` (stereo not drawn) [Example 63, 2-(4-(4,6-difluoro-1H-indole-2-carbonyl)piperazin-1-yl)-N-(2-methoxypropyl)-2-oxoacetamide], in series [1], the CC50 at 6 days was greater than 100 µM. The EC50 in the series on HBV was less than 1 µM. For the same molecule, the IC50 in series [2] was less than 5 µM.

Molecule `CC(C)(CCO)CNC(=O)C(=O)N1CCN(C(=O)c2cc3c(F)cc(F)cc3[nH]2)CC1` [Example 61, 2-(4-(4,6-difluoro-1H-indole-2-carbonyl)piperazin-1-yl)-N-(4-hydroxy-2,2-dimethylbutyl)-2-oxoacetamide] displayed a CC50 at 6 days in series [1] greater than 100 µM. In addition, in the series on HBV, the EC50 is less than 1 µM. For the same molecule, the IC50 in series [2] was less than 5 µM.

In turn, `C[C@@H](O)CNC(=O)C(=O)N1CCN(C(=O)c2cc3ccccc3[nH]2)CC1` [Example 2, (R)-2-(4-(1H-indole-2-carbonyl)piperazin-1-yl)-N-(2-hydroxypropyl)-2-oxoacetamide] registered a CC50 at 6 days in series [1] greater than 100 µM. Also, in the series with HBV, the EC50 fell in the range of 1 to 10 µM. The molecule also showed an IC50 in series [2] of 5 to 10 µM.

In turn, `COC1(CNC(=O)C(=O)N2CCN(C(=O)c3cc4c(F)cc(F)cc4[nH]3)CC2)CC1` [Example 65, 2-(4-(4,6-difluoro-1H-indole-2-carbonyl)piperazin-1-yl)-N-((1-methoxycyclopropyl)methyl)-2-oxoacetamide] showed a CC50 at 6 days in series [1] greater than 100 µM. For the same molecule, in the series on HBV, the EC50 was less than 1 µM. For the same molecule, in series [2], the IC50 was less than 5 µM.

With `CC(C)(C)NC(=O)C(=O)N1CCN(C(=O)c2cc3ccccc3[nH]2)CC1` [Example 52, N-tert-butyl-2-[4-(1H-indole-2-carbonyl)piperazin-1-yl]-2-oxoacetamide], the CC50 at 6 days in series [1] was greater than 100 µM. In the series with HBV, the EC50 is less than 1 µM. The concentration for half-maximal inhibition (IC50) in series [2] was less than 5 µM.

With `CCCCNC(=O)C(=O)N1CCN(C(=O)c2cc3cccc(C)c3[nH]2)CC1` [Example 24, N-butyl-2-(4-(7-methyl-1H-indole-2-carbonyl)piperazin-1-yl)-2-oxoacetamide], the CC50 at 6 days in series [1] was greater than 100 µM. In the series on HBV, the EC50 is less than 1 µM.

The molecule `O=C(NCC1(O)CC1)C(=O)N1CCN(C(=O)c2cc3c(F)cc(F)cc3[nH]2)CC1` [Example 53, 2-(4-(4,6-difluoro-1H-indole-2-carbonyl)piperazin-1-yl)-N-((1-hydroxycyclopropyl)methyl)-2-oxoacetamide] yielded a CC50 at 6 days in series [1] greater than 100 µM. Also, the EC50 in the series on HBV was less than 1 µM. In addition, the IC50 in series [2] was less than 5 µM.

`CCCCNC(=O)C(=O)N1CCN(C(=O)c2cc3c(F)cc(F)cc3[nH]2)CC1` [Example 9, N-butyl-2-(4-(4,6-difluoro-1H-indole-2-carbonyl)piperazin-1-yl)-2-oxoacetamide]: the CC50 at 6 days in series [1] was greater than 100 µM. Also, the EC50 in the series on HBV is less than 1 µM. For the same molecule, the IC50 in series [2] was less than 5 µM.

For the molecule `CCCCNC(=O)C(=O)N1CCN(C(=O)c2cc3c(F)cccc3[nH]2)CC1` [Example 26, N-butyl-2-(4-(4-fluoro-1H-indole-2-carbonyl)piperazin-1-yl)-2-oxoacetamide], the CC50 at 6 days in series [1] was greater than 100 µM. Besides, in the series with HBV, the EC50 is less than 1 µM. The same molecule yielded an IC50 in series [2] of less than 5 µM.

`O=C(Nc1cccc(Br)c1)C(=O)N1CCN(C(=O)c2cc3ccccc3[nH]2)CC1` [Example 1, N-(3-bromophenyl)-2-[4-(1H-indole-2-carbonyl)piperazin-1-yl]-2-oxoacetamide]: the EC50 with HBV was in the range of 1 to 10 µM.

As to `C[C@H](O)CNC(=O)C(=O)N1CCN(C(=O)c2cc3ccccc3[nH]2)CC1` [Example 36, (S)-2-(4-(1H-indole-2-carbonyl)piperazin-1-yl)-N-(2-hydroxypropyl)-2-oxoacetamide], the IC50 in series [2] was less than 5 µM.

On to `O=C1CCC(CNC(=O)C(=O)N2CCN(C(=O)c3cc4ccccc4[nH]3)CC2)N1` (stereo not drawn) [Example 14, 2-[4-(1H-indole-2-carbonyl)piperazin-1-yl]-2-oxo-N-[(5-oxopyrrolidin-2-yl)methyl]acetamide], for which, in series [2], the IC50 was less than 100 µM.

The molecule `C[C@@H]1CN(C(=O)C(=O)NC(C)(C)C)[C@@H](C)CN1C(=O)c1cc2ccccc2[nH]1` [Example 48, N-tert-butyl-2-[(2S,5R)-4-(1H-indole-2-carbonyl)-2,5-dimethylpiperazin-1-yl]-2-oxoacetamide] registered an IC50 in series [2] of less than 5 µM.
